# In patent EP0358766A1, “METHOD OF STERILIZING PLANT ANTHERS” (VSESOJUZNY NAUCHNO-ISSLEDOVATELSKY INST. SELSKOKHOZYAISTV. …, priority 1988, dated 1989):
# Columns and labels:
# [1] = tested on: Sommerweizens Sorte Moskowskaya 35; experiment: Field test of gametocidal activity, spring wheat Moskowskaya 35; type: in vivo, Weizen; settings: for Kornzahl der Ähre bei freier Bestäubung / Kornzahl der Ähre im Isolator / Prozentsatz des Ansetzens von Samen bei freier Bestäubung: Moskowskaya 35, period V, 1% aqueous emulsion, 6 kg/ha in 600 l water; for Prozentsatz des Ansetzens von Samen bei freier Bestäubung: control = 100; for pest or weed control at 6000 g/ha: read-out: Prozentsatz der Sterilität
# Description: (§1) Die gametozide Aktivität der erfindungsgemäßen Sterilisationsmittel war in Feldversuchen in verschiedenen bodenklimatischen Zonen mit Teilstücken von 10 m^2 Größe in dreibis viermaliger Wiederholung festgestellt. Jedes Sterilisationsmittel wurde mindenstens 5 Jahre lang geprüft.
# (§2) Die Entwicklung der Perioden der Organogenese wird zytologisch überwacht. Die Behandlung von Pflanzen mit dem Sterilisationsmittel erfolgt am Anfang der fünften Periode der Organogenese nach Kupermann.
# (§3) Mit dem Ährenschieben verwirklicht man die Isolierung von Hauptähren und anderen Stockwerken in Pergametbeuteln. Bei Weizen und Tritikale werden Einzelisolatoren benutzt. Bei Roggen schließt man je 1 Ähre von […] verschiedenen nebeneinander befindlichen Pflanzen unter einen gemeinsamen Isolator ein. Bei Hirse wird jede Rispe getrennt isoliert. Der Sterilitätsprozentsatz (X) für Weizen, Roggen, Tritikale und Hirse wird nach der Formel [formula] ermittelt.
# (§4) Die Kornzahl in nicht isolierten Ähren von Kontrollpflanzen wird bedingt für 100 % Ansetzen bei freier Bestäubung angenommen.
# (§5) Um zuverlässige Angaben zu erhalten, verwendet man 20 bis 25 Isolatoren je Wiederholung für Weizen und Tritikale, 10 bis 15 Isolatoren jeder Wiederholung für Roggen und Hirse.
# Pflanzen des Sommerweizens Sorte Moskowskaya 35 werden in der V. Periode der Organogenese (nach Kupermann) mit einer l%igen wäßrigen Emulsion von 1,1,3-Tribrompropan, […], 1,1,2,3-Tetrabrompropan, 1,2,3-Tribrompropan, 1,2-Dibrompropan, 1,1,3-Tribrom-3-chlorpropan, 1,2-Dibrom-3-chlorpropan, 1,3-Dibrompropan, 1,1,1,3-Tetrabromheptan bzw. 1,1,3-Tribromheptan behandelt. Die Emulsion enthält als Emulgierungsmittel 0,5 Masse% C12-C14-Kalzium- alkylbenzolsulfonat und als Adjuvans 0,01 Masse% Dimethylformamid. Der Verbrauch an Präparat beträgt 6 kg/ha bei 600 1 Wasserdurchsatz. Als Kontrolle dienen Pflanzen, behandelt mit dem Verdünner ohne Sterilisationsmittel.
# Die Prüfergebnisse sind in der Tabelle 2 angegeben. Die gleichen Ergebnisse sind bei der Behandlung des Sommerweizens Sorte Moskowskaya 35 in der VI.Periode der Organogenese erhalten.
# [2] = tested on: Winterweizens Sorte Mironowskaya 808; experiment: Field test of gametocidal activity (anther sterilisation), winter wheat Mironowskaya 808; type: in vivo, Weizen; settings: for Kornzahl der Ähre bei freier Bestäubung / Kornzahl der Ähre im Isolator / Prozentsatz des Ansetzens von Samen bei freier Bestäubung: Mironowskaya 808, period V of organogenesis; for Prozentsatz des Ansetzens von Samen bei freier Bestäubung: control = 100; for pest or weed control at 1 %, 10000 g/ha: read-out: Prozentsatz der Sterilität %
# Description: as §1, §2, §3, §4, §5
# Pflanzen des Winterweizens Sorte Mironowskaya 808 werden in der V.Periode der Organogenese durch Zerstäubung der 2%igen wäßrigen Emulsion von 1,1,3-Tribrompropan mit Hilfe einer Rückenspritze behandelt.
# Als Emulgierungsmittel setzt man 0,5 Masse% C12-C14--Kalziumalkylbenzolsulphonat zu. Als Adjuvans enthält die Emulsion 0,01 Masse% Dimethylsulfoxid. Der Verbrauch an Präparat beträgt 20 kg/ha bei 1000 Liter Wasserdurchsatz. Als Kontrolle dienen Pflanzen, behandelt mit einem Verdünner ohne Sterilisationsmittel. Die Ergebnisse sind in der Tabelle 1 angegeben.
# Der ProzeB wird analog zu dem in Beispiel 1 beschriebenen durchgeführt. Als Sterilisationsmittel verwendet man eine 2%ige waßrige Emulsion von 1,1,3-Tribrom-4-chlorbutan, 1,1,2,3-Tetrabrompropan. Die Prüfergebnisse sind in der Tabelle 1 angegeben.
# Der Prozeß wird analog zu dem in Beispiel 1 beschriebenen durchgeführt, nur daß man 1%ige wäßrige Emulsion von 1,2,3-Tribrompropan, 1,2-Dibrompropan, 1,1,3-Tribrom-3--chlorpropan, 1,2-Dibrom-3-chlorpropan, 1,3-Dibrompropan, 1,1,1,3-Tetrabromheptan, 1,1,3-Tribromheptan, 1,2-Dibromheptan verwendet. Die Präparatdosis beträgt 10 kg ha. Die Prüfergebnisse sind in der Tabelle 1 angegeben. Die gleichen Ergebnisse sind bei der Behandlung des Weizens Sorte Mironowskaya 808 in der VI. Periode der Organogenese erhalten.
# [3] = tested on: diploidem Roggen Kharkovskaya 55; experiment: Field test of gametocidal activity, diploid rye Kharkovskaya 55; type: in vivo; settings: for Kornzahl der Ähre bei freier Bestäubung / Kornzahl der Ähre im Isolator / Prozentsatz des Ansetzens von Samen bei freier Bestäubung: Kharkovskaya 55, period V, 1% aqueous emulsion, 6 kg/ha in 600 l water; for Prozentsatz des Ansetzens von Samen bei freier Bestäubung: control = 100; for pest or weed control at 6000 g/ha: read-out: Prozentsatz der Sterilität
# Description: as §1, §2, §3, §4, §5
# Pflanzen von diploidem Roggen Kharkovskaya 55 werden in der V. Periode der Organogenese mit einer l%igen wäßrigen Emulsion von 1,1,3-Tribrompropan, 1,2,3-Tribrompropan, 1,2-Dibrompropan, 1,1,3-Tribrom-3-chlorpropan, 1,2--Dibrom-3-chlorpropan, 1,1,1,3-Tetrabromheptan, 1,1,3-Tribromheptan bzw. 1,2-Dibromheptan behandelt. Die Emulsion enthält 0,5 Masse% C12-C14-Kalziumalkylbenzolsulfonat und 0,01 Masse% Dimethylformamid als Adjuvans. Der Verbrauch an Präparat beträgt 6 kg/ha bei 600 1 Wasserdurchsatz. Die Prüfergebnisse sind in der Tabelle 13 angegeben. Die gleichen Ergebnisse sind bei der Behandlung von diploidem Roggen Kharkovskaya 55 in der VI. Periode der Organogenese erhalten.
# [4] = tested on: diploidem Roggen Chulpan; experiment: Field test of gametocidal activity, diploid rye Chulpan; type: in vivo; settings: for Kornzahl der Ähre bei freier Bestäubung / Kornzahl der Ähre im Isolator / Prozentsatz des Ansetzens von Samen bei freier Bestäubung: Chulpan, period V, 1% aqueous emulsion, 10 kg/ha; for Prozentsatz des Ansetzens von Samen bei freier Bestäubung: control = 100; for pest or weed control at 10000 g/ha: read-out: Prozentsatz der Sterilität
# Description: as §1, §2, §3, §4, §5
# Pflanzen von diploidem Roggen Chulpan werden in der V.Periode der Organogenese mit einer 1%igen wäßrigen Emulsion von 1,1,3-Tribrompropan, 1,1,3-Tribrom-4-chlorbutan, 1,1,2,3-Tetrabrompropan, 1,2,3-Tribrompropan, 1,2-Dibrompropan, 1,1,3-Tribrom-3-ohlorpropan, 1,2-Dibrom-3--chlorpropan, 1,3-Dibrompropan, 1,1,1,3-Tetrabromheptan, 1,1,3-Tribromheptan bzw. 1,2-Dibromheptan behandelt. Die Emulsion enthält 0,5 Masse% C12-C14-Kalziumalkylbenzolsul- fonat und 0,01 Masse% Dimethylsulfoxid. Der Verbrauch an Präparat beträgt 10 kg/ha. Die Prüfergebnisse sind in der Tabelle 11 angegeben. Die gleichen Ergebnisse sind bei der Behandlung von diploidem Roggen Chulpan in der VI. Periode der Organogenese erhalten.
# [5] = tested on: Hirse Sorte Mironovskoye 94; experiment: Field test of gametocidal activity, millet Mironovskoye 94; type: in vivo; settings: for Kornzahl der Rispe bei freier Bestäubung / Kornzahl der Rispe im Isolator / Prozentsatz des Ansetzens von Samen bei freier Bestäubung: Mironovskoye 94, period V, 1% aqueous emulsion, 6 kg/ha in 600 l water; for Prozentsatz des Ansetzens von Samen bei freier Bestäubung: control = 100; for pest or weed control at 6000 g/ha: read-out: Prozentsatz der Sterilität
# Description: as §1, §2, §3, §4, §5
# Pflanzen der Hirse Sorte Mironovskoye 94 werden in der V.Periode der Organogenese mit einer 1%igen wäßrigen Emulsion von 1,1,3-Tribrompropan, 1,2,3-Tribrompropan, 1,2-Dibrompropan, 1,2-Dibrom-3-chlorpropan, 1,3-Dibrompropan, 1,1,1,3-Tetrabromheptan, 1,1,3-Tribromheptan, 1,2-Dibromheptan behandelt. Die Emulsion enthält 0,5 Masse% C12-C14--Kalziumalkylbenzolaulfonat und 0,01 Masse% Dimethylsulfoxid als Adjuvans. Der Verbrauch an Präparat beträgt 6 kg/ha bei 600 1 Wasserdurchsatz. Die Prüfergebnisse sind in der Tabelle 15 angegeben. Die gleichen Ergebnisse sind bei der Behandlung der Hirse Sorte Mironovskoye 94 in der VI. Periode der Organogenese erhalten.
# [6] = 2% aqueous emulsion, 20 kg/ha in 1000 l water
SMILES,Kornzahl der Ähre bei freier Bestäubung [1],Kornzahl der Ähre im Isolator [1],Prozentsatz des Ansetzens von Samen bei freier Bestäubung [1],pest or weed control at 6000 g/ha [1],Kornzahl der Ähre bei freier Bestäubung [3],Kornzahl der Ähre im Isolator [3],Prozentsatz des Ansetzens von Samen bei freier Bestäubung [3],pest or weed control at 6000 g/ha [3],Kornzahl der Ähre bei freier Bestäubung [4],Kornzahl der Ähre im Isolator [4],Prozentsatz des Ansetzens von Samen bei freier Bestäubung [4],pest or weed control at 10000 g/ha [4],Kornzahl der Rispe bei freier Bestäubung [5],Kornzahl der Rispe im Isolator [5],Prozentsatz des Ansetzens von Samen bei freier Bestäubung [5],pest or weed control at 6000 g/ha [5],"Kornzahl der Ähre bei freier Bestäubung ([2]; 1% aqueous emulsion, 10 kg/ha)","Kornzahl der Ähre im Isolator ([2]; 1% aqueous emulsion, 10 kg/ha)","Prozentsatz des Ansetzens von Samen bei freier Bestäubung ([2]; 1% aqueous emulsion, 10 kg/ha)","pest or weed control at 1 %, 10000 g/ha [2]",also measured
"BrCCC(Br)Br [Beispiel 1, 1,1,3-Tribrompropan]","34,2","0,7","89,5%",99.9%,"43,1","1,2","95,6%",97.2%,"46,5","0,2","92,8%",99.6%,"175,1","0,0","71,6%",100%,–,–,–,–,"Kornzahl der Ähre bei freier Bestäubung [2, 6]: 40,3; Kornzahl der Ähre im Isolator [2, 6]: 0,9; Prozentsatz des Ansetzens von Samen bei freier Bestäubung [2, 6]: 84,0%"
"BrCC(Br)CBr [Beispiel 4, 1,2,3-Tribrompropan]","34,1","0,0","89,3%",100%,"40,5","0,6","89,8%",98.6%,"45,0","0,0","89,8%",100%,"147,5","0,0","60,2%",100%,"34,8","0,0","93,3%",100%,–
"CC(Br)CBr (centres unmarked) [Beispiel 5, 1,2-Dibrompropan]","33,6","0,0","87,9%",100%,"42,8","0,8","94,9%",98.1%,"48,2","0,0","96,2%",100%,"160,3","0,0","65,5%",100%,"36,7","0,1","98,4%",99.7%,–
